This passage reports relative viability results from the supplement of paper PMC10307832.

Common to all, as to assay: relative viability (nuclei count vs DMSO), 5 days (fraction); higher = more cells survive
Compound in test [1]: Cc1ccc(C(=O)Nc2ccc(CN3CCN(C)CC3)c(C(F)(F)F)c2)cc1C#Cc1cnc2cccnn12 [Ponatinib] + CC(C)C[C@H](NC(=O)[C@H](Cc1ccccc1)NC(=O)c1cnccn1)B(O)O [Bortezomib] (partner 0.002 µM)
The method in brief:
(§1)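 Lung cancer cell lines, seeded in 1536-well plates, were treated the following day by pin tool with a single drug or with five library-drug doses (not always all listed) in √10 steps on top of a fixed anchor-drug dose. Cells were fixed and nuclei stained in one step after 5 days, and nuclei were counted. Relative viability is the nuclei count for treated wells divided by that for vehicle wells, reported as medians of duplicate plates.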

Compound in test [2]: Cc1ccc(C(=O)Nc2ccc(CN3CCN(C)CC3)c(C(F)(F)F)c2)cc1C#Cc1cnc2cccnn12 [Ponatinib] + COc1cccc2cc(-c3nc([C@H]4CC[C@H](C(=O)O)CC4)n4ncnc(N)c34)[nH]c12 [OSI-027] (partner 0.5 µM)
The method in brief: as §1

Compound in test [3]: Cc1ccc(C(=O)Nc2ccc(CN3CCN(C)CC3)c(C(F)(F)F)c2)cc1C#Cc1cnc2cccnn12 [Ponatinib] + N=C(N)NC(=N)NCCc1ccccc1 [Phenformin] (partner 250 µM)
The method in brief: as §1

Compound in test [4]: Cc1ccc(Nc2nccc(N(C)c3ccc4c(C)n(C)nc4c3)n2)cc1S(N)(=O)=O [Pazopanib] + COc1cc2c(Oc3ccc(NC(=O)C4(C(=O)Nc5ccc(F)cc5)CC4)cc3F)ccnc2cc1OCCCN1CCOCC1 [Foretinib] (partner 0.25 µM)
The method in brief: as §1

In the case of UMC-11, the relative viability amounted to 0.653 in test [1] (first compound 0.002 µM); 0.769 in test [1] (first compound 0.006325 µM); 0.921 in test [1] (first compound 0.06325 µM); 0.646 in test [1] (first compound 0.2 µM); 0.47 in test [2] (first compound 0.002 µM); 0.49 in test [2] (first compound 0.006325 µM). For the same cell line, the relative viability in test [2] (first compound 0.06325 µM) was determined as 0.555; in test [2] (first compound 0.2 µM), 0.525; in test [3] (first compound 0.002 µM), 0.305; in test [3] (first compound 0.006325 µM), 0.33; in test [3] (first compound 0.06325 µM) it was 0.366; in test [3] (first compound 0.2 µM), 0.317. The relative viability in test [4] (first compound 0.01 µM) came to 0.958; in test [4] (first compound 0.03162 µM), 1.16; in test [4] (first compound 0.1 µM), 1.19; in test [4] (first compound 0.3162 µM) it was 1.07; in test [4] (first compound 1 µM), 1.13.
